Patent publication US6452005B1, “JAK-3 inhibitors for treating allergic disorders” (Parker Hughes Institute, priority 1999, dated 2002)
Where two headings read alike, the source gives them in different places.

Tests used:
[1] = tested on: RBL-2H3 mast cells; test: IgE/antigen-induced degranulation and mediator release; format: cell-based, rat; conditions: 1 h preincubation, DNP-BSA challenge; at ≧30 μM
Description: Vehicle treated control RBL-2H3 cells released 45.1±3.1% of their hexosaminidase contents after DNP-BSA challenge. […] Vehicle treated control cells released 11.3±1.3 pg LTC4, and 160±33.0 pg TNFα/10^6 mast cells. The results on LTC4 and TNFα release are expressed as percent of maximum control release from vehicle treated control mast cells. The data points represent the mean±SEM values obtained from 3-6 independent experiments. […] *P<0.05 and **P<0.0001 compared to control as determined by Student's t test.
Supernatants were removed and saved.

[2] = tested on: JAK3-dependent STAT activation; test: EMSA, IL-2 triggered STAT activation in 32Dc11/IL2Rβ cells; format: cell-based
Procedure: (§1) Electrophoretic Mobility Shift Assays (EMSAs). EMSAs were performed to examine the effects of dimethoxyquinazoline compounds on cytokine-induced STAT activation (Goodman et. al., 1998). […] Cells were collected after 15 minutes and resuspended in lysis buffer (100 mM Tris-HCl pH 8.0, 0.5% NP-40, 10% glycerol, […], 0.1 mM NaVO3, 50 mM NaF, 150 mM NaCl, 1 mM DTT, 3 μg/ml Aprotinin, 2 μg/ml Pepstatin A, 1 μg/ml Leupeptin and 0.2 mM PMSF). Lysates were precleared by centrifugation for 30 min. Cell extracts (approximately 10 μg) were incubated with 2 μg of poly(dI-dC) for 30 minutes, followed by a 30 minutes incubation with 1ng of poly. nucleotide kinase-^32P labeled double stranded DNA oligonucleotide representing the IRF-1 STAT DNA binding sequence (Santa Cruz Biotechnology, Santa Cruz, Calif.). Samples were resolved by non-denaturing PAGE and visualized by autoradiography.

[3] = biological target: T1, recombinant JAK1 (Homo sapiens, UniProt P23458); test: Immune complex kinase assay, recombinant JAK1; format: biochemical; conditions: FIG. 6C & D
T1 construct: made in house; host or cells: Sf21 insect cells, baculovirus
Description: (§2) Immune Complex Kinase Assays.

[4] = tested on: JAK1/JAK2-dependent STAT activation; test: EMSA, IL-3 triggered STAT activation in 32Dc11/IL2Rβ cells; format: cell-based; conditions: 10 μg/ml
Procedure: as §1

[5] = biological target: recombinant JAK2 (Homo sapiens, UniProt O60674); test: Immune complex kinase assay, recombinant JAK2; conditions: FIG. 6C & D
Procedure: In FIGS. 6A-6D, JAK3, JAK1, and JAK2 were immunoprecipitated from Sf21 insect ovary cells transfected with the appropriate baculovirus expression vectors and treated with WHI-P131, then subjected to in vitro kinase assays as described in the Examples below. The enzymatic activity of JAKs was determined by measuring autophosphorylation in a 10 minute kinase assay, as described in the Examples below. The kinase activity (KA) levels were expressed as percentage of baseline activity (%CON).
Immune Complex Kinase Assays. Sf21 (IPLB-SF21-AE) cells (Vassilev et. al., 1999, J. Biol. Chem,. 274:1646-1656) derived from the ovarian tissue of the fall armyworm Spodotera frugiperda, were obtained from Invitrogen and maintained at 26-28° C. in Grace's insect cell medium supplemented with 10% FBS and 1.0% antibiotic/antimycotic (GIBCO-BRL). Stock cells were maintained in suspension at 0.2-1.6×10^6/ml in 600 ml total culture volume in 1 L Bellco spinner flasks at 60-90 rpm. Cell viability was maintained at 95-100% as determined by trypan blue dye exclusion.
Sf21 cells were infected with a baculovirus expression vector for BTK, SYK, JAK1, JAK2, or JAK3, as previously reported (Mahajan et. al., 1999, J. Biol. Chem., 274:1646-1656). […]

[6] = biological target: T2, recombinant murine JAK3 (Mus musculus, UniProt Q62137); test: Immune complex kinase assay, recombinant JAK3 from baculovirus expression system; format: biochemical; conditions: recombinant murine JAK3, FIG. 6B
T2 construct: made in house; host or cells: Sf21 insect cells, baculovirus
T2 sequence (Q62137 1-1100): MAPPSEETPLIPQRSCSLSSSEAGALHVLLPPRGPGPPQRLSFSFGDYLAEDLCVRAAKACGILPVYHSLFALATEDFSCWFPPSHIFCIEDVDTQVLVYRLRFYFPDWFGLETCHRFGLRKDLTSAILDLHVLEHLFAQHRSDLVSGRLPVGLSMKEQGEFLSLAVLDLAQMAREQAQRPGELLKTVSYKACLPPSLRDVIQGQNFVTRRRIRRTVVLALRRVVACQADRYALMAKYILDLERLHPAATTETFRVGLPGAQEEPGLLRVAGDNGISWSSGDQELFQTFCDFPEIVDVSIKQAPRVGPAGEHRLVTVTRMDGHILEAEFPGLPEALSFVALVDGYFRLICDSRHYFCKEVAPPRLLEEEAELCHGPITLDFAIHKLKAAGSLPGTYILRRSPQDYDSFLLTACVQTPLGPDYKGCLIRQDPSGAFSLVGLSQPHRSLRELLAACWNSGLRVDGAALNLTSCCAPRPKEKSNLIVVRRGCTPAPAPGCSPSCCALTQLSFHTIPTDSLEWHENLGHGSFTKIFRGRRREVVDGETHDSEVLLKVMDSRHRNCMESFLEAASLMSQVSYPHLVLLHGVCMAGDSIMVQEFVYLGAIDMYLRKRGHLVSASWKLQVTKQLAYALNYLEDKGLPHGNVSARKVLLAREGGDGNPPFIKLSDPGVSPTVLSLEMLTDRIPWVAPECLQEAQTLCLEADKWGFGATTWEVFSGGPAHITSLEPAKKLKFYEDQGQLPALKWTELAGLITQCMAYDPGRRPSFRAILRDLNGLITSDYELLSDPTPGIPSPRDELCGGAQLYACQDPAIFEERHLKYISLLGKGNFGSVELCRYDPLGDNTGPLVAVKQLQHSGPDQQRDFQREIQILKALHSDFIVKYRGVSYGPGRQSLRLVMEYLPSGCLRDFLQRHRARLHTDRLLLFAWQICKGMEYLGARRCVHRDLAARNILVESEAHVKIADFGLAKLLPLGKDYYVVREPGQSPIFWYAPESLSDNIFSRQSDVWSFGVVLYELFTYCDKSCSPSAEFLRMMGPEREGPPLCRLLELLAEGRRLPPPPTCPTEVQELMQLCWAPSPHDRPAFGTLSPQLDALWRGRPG
Procedure: as §2
KL-2 EBV-transformed human lymphoblastoid B cells (native JAK3 kinase assays) or insect ovary cells (recombinant JAK3 kinase assays) were lysed with NP-40 lysis buffer (50 mM Tris, pH 8, 150 mM NaCl, 5 mM EDTA, 1% NP-40, 100 μM sodium orthovanadate, 100 μM sodium molybdate, 8 μg/ml aprotinin, 5 μg/ml leupeptin, and 500 μM PMSF) and centrifuged 10 minutes at 13000×g to remove insoluble material. Samples were immunoprecipitated with antisera prepared against JAK3. The antisera were diluted and immune complexes collected by incubation with 15 μl protein A Sepharose. After 4 washes with NP-40 lysis buffer, the protein A Sepharose beads were washed once in kinase buffer (20 mM MOPS, pH 7.0, 10 mM MgCl2) and resuspended in the same buffer. Reactions were initiated by the addition of 25 μCi γ[^32P] ATP (5000 Ci/mMole) and unlabeled ATP to a final concentration of 5 μM. Reactions were terminated by boiling for 4 min in SDS sample buffer. Samples were run on 9.5% SDS polyacrylamide gels and labeled proteins will be detected by autoradiography. […] For each drug concentration, a kinase activity index (KA) was determined by comparing the kinase activity in phosphorimager units (PIU) to that of the baseline sample. […]

Chain of recombinant JAK2 (O60674 whole entry): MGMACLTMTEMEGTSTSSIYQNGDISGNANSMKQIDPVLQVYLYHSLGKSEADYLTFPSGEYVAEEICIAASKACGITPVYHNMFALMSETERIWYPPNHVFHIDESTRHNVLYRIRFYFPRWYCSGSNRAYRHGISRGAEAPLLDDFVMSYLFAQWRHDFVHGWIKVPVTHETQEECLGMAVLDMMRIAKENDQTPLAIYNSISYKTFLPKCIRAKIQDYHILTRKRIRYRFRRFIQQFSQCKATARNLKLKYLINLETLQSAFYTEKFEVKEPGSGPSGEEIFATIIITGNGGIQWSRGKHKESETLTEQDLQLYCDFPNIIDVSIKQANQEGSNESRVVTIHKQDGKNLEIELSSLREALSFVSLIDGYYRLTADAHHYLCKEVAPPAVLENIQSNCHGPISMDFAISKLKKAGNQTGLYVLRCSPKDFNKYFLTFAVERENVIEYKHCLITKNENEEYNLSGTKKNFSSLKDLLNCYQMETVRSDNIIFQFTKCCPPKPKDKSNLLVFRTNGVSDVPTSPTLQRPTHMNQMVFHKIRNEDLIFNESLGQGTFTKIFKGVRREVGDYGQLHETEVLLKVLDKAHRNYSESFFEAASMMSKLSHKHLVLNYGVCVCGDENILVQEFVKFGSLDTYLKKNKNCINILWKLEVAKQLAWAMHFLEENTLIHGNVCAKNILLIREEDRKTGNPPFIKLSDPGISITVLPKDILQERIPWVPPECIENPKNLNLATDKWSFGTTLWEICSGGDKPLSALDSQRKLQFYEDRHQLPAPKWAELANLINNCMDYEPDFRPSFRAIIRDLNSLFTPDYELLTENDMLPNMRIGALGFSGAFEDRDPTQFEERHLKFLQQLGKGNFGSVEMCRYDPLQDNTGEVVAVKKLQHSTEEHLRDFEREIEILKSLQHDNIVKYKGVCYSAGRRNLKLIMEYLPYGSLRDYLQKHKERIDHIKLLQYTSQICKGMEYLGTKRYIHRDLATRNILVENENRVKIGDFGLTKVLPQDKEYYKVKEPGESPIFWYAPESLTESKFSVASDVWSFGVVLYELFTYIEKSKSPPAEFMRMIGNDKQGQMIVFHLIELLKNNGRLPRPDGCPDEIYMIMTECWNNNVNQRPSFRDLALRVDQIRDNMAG
T1 sequence (P23458 whole entry): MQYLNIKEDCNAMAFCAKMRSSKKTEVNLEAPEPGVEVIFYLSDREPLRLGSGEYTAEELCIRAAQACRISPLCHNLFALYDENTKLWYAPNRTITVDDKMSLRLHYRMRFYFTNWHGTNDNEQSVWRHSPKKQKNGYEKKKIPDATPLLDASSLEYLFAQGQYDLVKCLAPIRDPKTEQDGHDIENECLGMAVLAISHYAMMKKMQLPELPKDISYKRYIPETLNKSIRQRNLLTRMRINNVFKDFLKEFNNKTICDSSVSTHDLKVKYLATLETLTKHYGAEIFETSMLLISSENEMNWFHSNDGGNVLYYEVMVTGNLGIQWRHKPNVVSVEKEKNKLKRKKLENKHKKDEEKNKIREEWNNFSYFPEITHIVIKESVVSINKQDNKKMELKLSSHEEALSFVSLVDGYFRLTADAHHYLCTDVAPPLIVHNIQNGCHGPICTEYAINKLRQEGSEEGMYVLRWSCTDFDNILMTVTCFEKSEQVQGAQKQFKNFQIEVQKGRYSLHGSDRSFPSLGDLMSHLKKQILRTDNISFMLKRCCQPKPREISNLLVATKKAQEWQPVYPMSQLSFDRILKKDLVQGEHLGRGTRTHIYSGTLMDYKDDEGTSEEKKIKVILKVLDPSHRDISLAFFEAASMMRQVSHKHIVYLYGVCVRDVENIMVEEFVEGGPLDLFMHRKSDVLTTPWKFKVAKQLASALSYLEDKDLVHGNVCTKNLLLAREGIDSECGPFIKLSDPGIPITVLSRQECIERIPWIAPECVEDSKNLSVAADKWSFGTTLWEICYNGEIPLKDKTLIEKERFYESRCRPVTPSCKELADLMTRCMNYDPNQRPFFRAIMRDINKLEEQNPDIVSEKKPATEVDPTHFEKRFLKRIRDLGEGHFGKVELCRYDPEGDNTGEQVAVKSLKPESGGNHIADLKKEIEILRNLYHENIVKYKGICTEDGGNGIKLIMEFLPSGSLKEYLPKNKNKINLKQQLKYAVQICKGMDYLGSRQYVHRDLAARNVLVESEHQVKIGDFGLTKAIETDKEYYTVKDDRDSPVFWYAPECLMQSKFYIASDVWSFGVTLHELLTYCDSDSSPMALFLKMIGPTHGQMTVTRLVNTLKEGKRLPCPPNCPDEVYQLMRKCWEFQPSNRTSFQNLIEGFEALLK

COc1cc2ncnc(Nc3ccc(O)c(Br)c3)c2cc1OC [WHI-P154, 4-(3′-Bromo-4′-hydroxylphenyl)-amino-6,7-dimethoxyquinazoline]
LTC4 release [1]: near to complete inhibition | TNFα release [1]: near to complete inhibition | β-hexosaminidase release (degranulation) [1]: near to complete inhibition | JAK3-dependent STAT activation after stimulation with IL-2 ([2]; 10 μg/ml, 32Dc11/IL2Rβ cells): inhibited | IL-2 triggered JAK-3-dependent STAT activation ([2]; 100 μg/ml in FIG. 6E legend): inhibited | inhibitory activity against recombinant JAK1 [3]: did not exhibit any detectable inhibitory activity | JAK1/JAK2-dependent STAT activation after stimulation with IL-3 [4]: did not affect | inhibitory activity against recombinant JAK2 [5]: did not exhibit any detectable inhibitory activity | IC50 [6]: 48.1 µg/mL | IC50 ([6]; molar value in brackets, read-out: IC50): ~128 µM
